Consider 8 compounds from patent publication US20120039796A1, “Novel method for creating, suspending and stabilizing electronically modified oxygen derivatives, along with creating, suspending and stabilizing electronically modified reaction intermediates, in a bio compatible fluorocarbon suspension, for the purpose of inducing a cascading immune response in …” (priority 2010, published 2012).

The subject of one series is cancer cell cultures. The note with it: cited from earlier work.
Another series has as its target T1, TrxR (Homo sapiens, UniProt Q16881).
T1 sequence (Q16881 151-649 limits assumed): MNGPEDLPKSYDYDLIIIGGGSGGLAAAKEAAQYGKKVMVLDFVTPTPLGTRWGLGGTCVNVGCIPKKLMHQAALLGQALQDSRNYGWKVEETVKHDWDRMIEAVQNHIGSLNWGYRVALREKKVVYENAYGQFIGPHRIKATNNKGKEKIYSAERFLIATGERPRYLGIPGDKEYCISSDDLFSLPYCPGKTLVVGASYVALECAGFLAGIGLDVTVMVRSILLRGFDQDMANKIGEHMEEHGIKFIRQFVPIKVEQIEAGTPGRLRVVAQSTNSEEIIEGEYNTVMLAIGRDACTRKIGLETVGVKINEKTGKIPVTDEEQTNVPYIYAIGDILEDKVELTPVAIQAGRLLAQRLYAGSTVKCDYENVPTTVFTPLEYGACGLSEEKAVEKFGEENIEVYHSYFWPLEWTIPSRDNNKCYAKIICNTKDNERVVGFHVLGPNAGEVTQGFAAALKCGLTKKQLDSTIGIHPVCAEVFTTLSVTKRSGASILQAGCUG
To be noted: cited from earlier work.

For series [1] the following is noted: cited from earlier work.
The nature of series [2]: Decay of ozone bubbled into distilled water, absorbance at 260 nm. It counts as physicochemical. Here is the method:
15 ml of distilled h20 was used to bubble a mixture of ozone/oxygen through the sample for 30 min in a glass bubbler using a custom made proton exchange membrane ozone machine, which then 0.01 ml sample was quickly placed in a hatch DR 4000 u spectrometer, the machine was zeroed before the sample was placed in, also the absorbance wave length was set for 260 nm, the detection absorbance band of ozone, initial results at the peak were 0.590 ABS, but quickly decayed and after 20 min the ozone present in the sample was completely gone. This is the main problem with modem ozone therapy, the sample disappears with a predictable results extremely fast decay rate with in 20 min, and there is not enough of a concentration left to make a therapeutic difference, especially for burns, ulcerations, tendon injections.

Series [3] is described as follows: Stability of ozone in 95% pure Fluorodecalin (C10F18), non-frozen, continuous absorbance at 260 nm. Type of series: physicochemical. Here is the method: (§1) After the ten hours expired, the spectrometer was quickly restarted for another 10 hours, were after the first 4 hours and 20 min in the second run is where the sample reached its half life. Once the 20 hours expired, the ABS reading was 0.082 were it took another 10 hours for Ozone too fully decay.
In the first PFC experiment, the ozone was stable within the PFC matrix for over 5 hours without any appreciable decay, after 5 hours the sample started to deviate and when the 10 hours mark was reached, the reading was around 0.600 ABS, in the last 5 hours of the run is when the sample lost 0.09 ABS, this was excellent result. In the second part of the experiment is where the sample decay accelerated. […] It should be noted the sample of PFC was 95% pure, and was the only purity I could attain at the time for the experiment and due to time constraints another sample could not have been attained. It should also be noted when the sample was finally removed from the machine for clean up, about 60 hours later after the initial experiment, half the sample evaporated. […] The utility of this patent is self evident; this invention solves the problems that plagued modern ozone therapy for the last 100 years.

Series [4] in a line: Stability of ozone in Fluorodecalin stored frozen at -50 C for 30 days, absorbance at 260 nm. Type of series: physicochemical. Here is the method:
as §1
After 30 days, the sample that was placed in the freezer was removed out of the freezer, with in 5 min the sample was completely thawed, which then a 0.01 ml sample was quickly placed it into the spectrometer were 3 consecutive single non timed scans were taken, with an average highest ABS reading of 0.688.

For series [5] the following is noted: cited from earlier work. The source holds these as a separate data set.

Consider `O=CC[C@@H](O)[C@H](O)[C@H](O)CO` [Example 2-DG, 2-Deoxy-D-glucose], for which, in the series with cancer cell cultures (by glucose deprivation), the apoptosis entry is “induces apoptosis”. In addition, the “effect on cell growth” value in the series with cancer cell cultures is given as “hampers cell growth”.
On to `O=c1c(O)c(-c2ccc(O)c(O)c2)oc2cc(O)cc(O)c12` [quercetin], for which the “inhibitory effect on TrxR” value at TrxR is “NADPH-, concentration-, and time-dependent inhibitory effect”.
`O=O` [oxygen]: the “solubility in PFC liquids” value in series [1] (PFC liquids for biomedical applications, 37° C., 1 atm) was 40-50 vol. %. For the same compound, the solubility in water in series [1] (water, 37° C., 1 atm) is 2.5 vol. %.
On to `FC1(F)C(F)(F)C(F)(F)C2(F)C(F)(F)C(F)(F)C(F)(F)C(F)(F)C2(F)C1(F)F` (centres unmarked) [perfluorodecalin], for which the “volume of oxygen dissolved by 100 ml” value in series [1] (100 ml perfluorodecalin at 25° C., oxygen at STP) was 49 mL.
Consider `O=[O+][O-]` [ozone], for which the “time after which ozone in the sample was completely gone” value in series [2] (distilled h20) worked out at 20 min. Also, the “initial absorbance at the peak” value in series [2] (ozone/oxygen bubbled 30 min through distilled h20, 260 nm) turned out to be 0.590 ABS. In addition, the “initial absorbance at the highest peak” value in series [3] (20/80 ozone/oxygen bubbled 20 min in Fluorodecalin, 260 nm) was “around 0.690 ABS”. Further, in series [3] (Fluorodecalin, non-frozen), the “absorbance at the 10 hours mark” value is given as “around 0.600 ABS”, the “absorbance once 20 hours expired” value is recorded as 0.082 ABS and the “further time for ozone to fully decay after the 20 hours” value was found to be 10 h. Further, in series [3] (Fluorodecalin, non-frozen, first 10 hour run), the “deviation in ABS over the first 10 hours” value is on record as 0.09 ABS. For the same compound, in series [4] (30 days at -50 C), the “stability in the frozen state” value is “fully stabilized”. Besides, the “average highest ABS reading after storage” value in series [4] (30 days in freezer at -50 C, thawed, 3 scans) was 0.688 ABS. The “time stable in air at -50 degrees C” value in series [5] (air, -50 degrees C) is reported as “about 3 months”. Besides, in series [5] (air), the half-life in air was 12 h. Besides, the half-life in saline entry in series [5] (saline) is on record as “less than 20 min”. The half-life in water entry in series [5] (watery solution) is given as “about 20 minutes”. In addition, the “amount dissolved in perfluorodecalin relative to oxygen” value in series [1] (at stp) is 13 times.
For the compound `O=C1c2c(O)cc(O)cc2O[C@H](c2ccc(O)c(O)c2)[C@H]1O` [taxifolin], the “inhibitory effect on TrxR” value at TrxR is “NADPH-, concentration-, and time-dependent inhibitory effect”.
Take `O=c1c(O)c(-c2cc(O)c(O)c(O)c2)oc2cc(O)cc(O)c12` [myricetin]: the “inhibitory effect on TrxR” value at TrxR was “NADPH-, concentration-, and time-dependent inhibitory effect”.
As for catechin, the “inhibitory effect on TrxR” value on TrxR is “NADPH-, concentration-, and time-dependent inhibitory effect”.
